This note sets out measurements from US20090092631A1, “GLYCOSYLATED SPECIFICITY EXCHANGERS THAT INDUCE AN ANTIBODY DEPENDENT CELLULAR CYTOTOXICITY (ADCC) RESPONSE” (priority 2007, published 2009).

Ends that are not written are not given here.

Assay [1] relates to human Gal-alpha1,3-Gal-specific antibodies. The experiment in a line: Glycosylated peptide competitive assay on Gal-BSA coated plates with human sera IB72. Format: binding. The note with it: mixed with human sera, positive control. How it is done: To further evaluate the ability of the glycosylated specificity exchangers to bind to a pathogen, a glycosylated peptide competitive assay was performed using the most reactive human sera (IB72). In brief, Gal-alpha-1,3-Gal-labeled bovine serum albumin (Gal-BSA) was coated onto 96-well microplates in sodium carbonate buffer (pH: 9.6) at +4° C. overnight. Dilutions of human sera and dilutions of glyco-peptides (glycosylated HIV-specific ligand/receptor specificity exchangers or Gal-BSA) or non-glycosylated peptides (HIV-specific ligand/receptor specificity exchangers or BSA) were preincubated in phosphate-buffered saline (PBS) containing 1% bovine albumin, 2% goat serum and 0.05% Tween 20 at 37° C. for 1 h. The mixture was then added to the coated plates and incubated at 37° C. for 1 h, then washed 3 times with phosphate-buffered saline (PBS) containing 0.05% Tween 20 (pH: 7.4).
Bound antibodies were indicated with goat anti-human polyvalent Ig, conjugated with alkaline phosphatase. The plates were incubated and washed as described above. Plates were developed with phosphatase substrate at room temperature for 30 min, stopped with 1 M NaOH. Optical density (OD) at 405 nm/650 nm was determined to quantify the inhibition. […] Thus, specificity exchangers that bind Gal-alpha1,3-Gal-specific antibodies had been generated. […]

The subject of assay [2] is HIV IIIB virus. The experiment in a line: Syncytia inhibition (plaque) assay on U87 CD4+-CXCR4+ cells. Format: cell-based, HIV-1. The note with it: for neutralization values (ranking): non-inactivated human sera (FIGS. 12H and 12I); for neutralization (comparison among glycopeptides): plaque assay U87, single round TZMbl and H9 infectivity assays, HIV IIIB, inactivated human serum. How it is done:
The CD4 glycopeptides were studied for inhibition of cell to cell interactions in a plaque assay system using U87 cells (FIG. 7), in a single round infectivity assay with TZMbl cells (FIG. 7) and in an infectivity assay with H9 cells, wherein multiple rounds of replication were allowed (FIG. 8). Infectivity was performed with the HIV IIIB virus and inactivated human serum from healthy individuals was used as the source of the anti-gal antibody.
Neutralization was tested based on the prevention of syncytia formation by HIV-1 infection of adherent U87 glioma cells expressing the CD4 receptor and the CXCR4 co-receptor, previously described by Shi Y, et al., (2002) A new cell line-based neutralization assay for primary HIV type 1 isolates. AIDS Res Hum Retroviruses 18:957-967, herein expressly incorporated by reference in its entirety.
Cells were seeded into 48 well plates (Costar, Corning USA) at a concentration of 10^5 cell/well one day prior to infection. On the day of infection, glycopeptides, pooled AB type human serum from healthy individuals (Cambrex, USA) and previously titrated HIV IIIB virus were diluted in culture medium and pre-incubated in a separate 48 well plate for 1 h at 37° C. The peptides were analyzed at different concentrations to evaluate the minimum dose required for antiviral activity. Two hundred microliters of each dilution were distributed into triplicate wells containing the U87 CD4^+-CXCR4^+ cells and incubated for 12 h after which medium was removed and 1 ml of D-MEM medium was added to the cells. The positive controls were infected cells in the presence or absence of human serum and negative controls consisted of uninfected cells in the presence or absence of human serum and an irrelevant glycosylated peptide. At day five the cells were fixated with methanol-acetone (1:1). The number of plaque-forming units was determined after haematoxylin staining and the index was extracted from the ratio between infected cells treated with the peptides and human serum and cells infected with the virus in the presence of human serum. Each peptide was tested at four different concentrations, in quadruplicates in the same plate and in five different plates, i.e. each peptide was run in twenty wells at each concentration.

Assay [3] deals with HIV IIIB virus. The experiment in a line: Multiple round infectivity assay in H9 cells (RT activity, day 11). Format: cell-based, HIV-1. The note with it: 1 μg/ml glycopeptide, 5 or 10% human serum. How it is done:
An infectivity assay was performed on H9 cells that were infected with HIV IIIB virus. All peptides were run at four different dilutions and each dilution was run in quadruplicates together with a 10% or 5% of pooled AB human serum from healthy individuals. (Cambrex, USA).
H9 cells were infected with 100 TCID50 of the HIV IIIB virus and incubated for 1.5 h at 37° C. after which they were centrifuged, the supernatant was discarded and the cells were re-suspended in RPMI medium for a final concentration of 200,000 cells/ml.
One 48 well plate was run per glycopeptide, containing the four dilutions of the glycopeptide and the four replicates of each one of them, plus a positive control of infected cells (with and without human serum) and a negative control of non-infected H9 cells. Each well contained 500 μl of the infected cells +500 μl of the diluted peptide and the chosen dilution of the human serum.
Plates were incubated at 37° C.+5% CO2 until day 7 when 500 μl of supernatant were collected from each well and stored at −20 degrees until further analysis. An additional 500 μl of fresh RPMI medium with the appropriate dilution of the peptide plus the human serum were added to the wells and incubated at 37 degrees until day 11 when the supernatant was measured for Reverse Transcriptase (RT) activity (Cavidi, Sweden) according to the manufacturer's protocol.

In the next assay the test system is HIV-1 IIIB. The assay can be described thus: Neutralization assay (plaque-forming units/syncytia) in U87 cells expressing CD4 and co-receptor. Format: cell-based. How it is done: Once it had been determined that the glycosylated specificity exchangers appreciably bound gp120 and human antibody, the antiviral activity of the glycosylated specificity exchangers was evaluated using a neutralization assay that is recognized in the art to reasonably predict the therapeutic efficacy of an HIV vaccine. (See Y. Shi et al., “A new cell line-based neutralization assay for primary HIV type 1 isolates,” AIDS Res Hum Retroviruses 18:957-967 (2002), herein expressly incorporated by reference in its entirety). By this approach, HIV infection of U87 cells that express CD4 and one of the major co-receptors (either CXCR4 or CCR5) were challenged with the glycosylated specificity exchangers and human serum during competition with the CD4 receptor. The infected cells form syncytia, that is, plaques, that were stained and enumerated by light microscopy. Neutralization was then determined by the ability of human serum and glycosylated specificity exchanger to reduce the number of plaque-forming units (PFU) relative to controls.
In brief, the U87 cells were seeded onto a 48 well plate at a concentration of 100,000 cell/well 1 day prior infection with HIV-1 IIIB. On the day of infection, glycosylated specificity exchangers (Seq. ID. Nos. 4-9), human serum and virus stock were diluted in culture medium and incubated in a separate 48 well plate, to a final dilution of 1:10/1:20 for the serum and an appropriate concentration of the virus, according to the titration. The glycosylated specificity exchangers were analyzed at different concentrations to determine the minimal amount required for antiviral activity. The glycosylated specificity exchanger-serum-virus mixture was kept at 37° C. for 1 hr. Then, two hundred microliters of each dilution was distributed into wells containing the U87/CD4 cells. The experiment was performed in quadruplicate in the same plate and in five separate plates.
Controls for the assay included glycosylated specificity exchanger without the coupled sugar, the glycosylated specificity exchanger (coupled with the sugar) and a 1:10/1:20 dilution of heat inactivated human serum, cells and medium only, and cells and medium and serum. […]

Where [4] appears, read: CD4 peptide Alone (without coupled sugar), 0.1 ug/ml, 0.3 equals 30% inhibition.
The mark [5] stands for this setting: CD4 peptide Alone (without coupled sugar), 1 ug/ml, 0.3 equals 30% inhibition.
[6] abbreviates: CD4 peptide Alone (without coupled sugar), 10 ug/ml, 0.3 equals 30% inhibition of HIV replication (syncytia formation).
[7] abbreviates: Glycosylated Sp. Exchanger & 1:10 dilution human serum, 0.1 ug/ml, 0.3 equals 30% inhibition.
The mark [8] stands for this setting: Glycosylated Sp. Exchanger & 1:10 dilution human serum, 1 ug/ml, 0.3 equals 30% inhibition.
The mark [9] stands for this setting: Glycosylated Sp. Exchanger & 1:10 dilution human serum, 10 ug/ml, 0.3 equals 30% inhibition.
Where [10] appears, read: Glycosylated Sp. Exchanger & 1:20 dilution human serum, 0.1 ug/ml, 0.3 equals 30% inhibition.
[11] abbreviates: Glycosylated Sp. Exchanger & 1:20 dilution human serum, 1 ug/ml, 0.3 equals 30% inhibition.
Setting [12] is: Glycosylated Sp. Exchanger & 1:20 dilution human serum, 10 ug/ml, 0.3 equals 30% inhibition.
The mark [13] stands for this setting: Glycosylated Sp. Exchanger, 0.1 ug/ml, 0.3 equals 30% inhibition.
Where [14] appears, read: Glycosylated Sp. Exchanger, 1 ug/ml, 0.3 equals 30% inhibition.
The mark [15] stands for this setting: Glycosylated Sp. Exchanger, 10 ug/ml, 0.3 equals 30% inhibition.

As for “Gal-alpha-1,3-Gal-labeled bovine serum albumin [Gal-BSA]”, the “inhibition of human antibody binding to Gal-BSA” value in assay [1] is on record as 100%.

In the case of “KILGNQGSFLTKGPS ({Gal‑α1‑3Gal‑β glyco‑aspartic acid}-KILGNQGSFLTKGPS) [Seq. Id. No. 6, CD4 receptor peptide with Gal-α1-3Gal-β glyco-aspartic acid linked to its N-terminal end]”, in the assay with HIV IIIB virus [2], the “neutralization values (ranking)” value is listed as “Highest neutralization values” and the “neutralization (comparison among glycopeptides)” value is “greater neutralization”. This substance also displayed a neutralization with HIV IIIB virus [3] of 90%.

For “QGSFLTKGPSKLNDR ({Gal‑α1‑3Gal‑β glyco‑aspartic acid}-QGSFLTKGPSKLNDR) [Seq. Id. No. 7, CD4 receptor peptide with Gal-α1-3Gal-β glyco-aspartic acid linked to its N-terminal end]”, the “neutralization values (ranking)” value with HIV IIIB virus [2] is given as “Highest neutralization values”. For the same substance, the “neutralization (comparison among glycopeptides)” value in the assay on HIV IIIB virus [2] is given as “greater neutralization”. In addition, the neutralization in the assay with HIV IIIB virus [3] was 90%. For the same substance, the “neutralization of the virus” value in the assay with HIV-1 IIIB (setting [4]) is on record as “neg (Neg = negative <0.30)”; in the assay with HIV-1 IIIB (setting [5]), “neg (Neg = negative <0.30)”; with HIV-1 IIIB (setting [6]) it was “neg (Neg = negative <0.30)”; with HIV-1 IIIB (setting [7]) it was 0.48; in the assay with HIV-1 IIIB (setting [8]) it was 0.48; with HIV-1 IIIB (setting [9]), 0.55. Further, the “neutralization of the virus” value in the assay with HIV-1 IIIB (setting [10]) is given as 0.47; with HIV-1 IIIB (setting [11]), 0.47; with HIV-1 IIIB (setting [12]) it was 0.48; in the assay with HIV-1 IIIB (setting [13]) it was “neg (Neg = negative <0.30)”; with HIV-1 IIIB (setting [14]) it was “neg (Neg = negative <0.30)”; with HIV-1 IIIB (setting [15]), “neg (Neg = negative <0.30)”.

For “TKGPSKLNDRADSRR ({Gal‑α1‑3Gal‑β glyco‑aspartic acid}-TKGPSKLNDRADSRR) [Seq. Id. No. 8, CD4 receptor peptide with Gal-α1-3Gal-β glyco-aspartic acid linked to its N-terminal end]”, in the assay on HIV IIIB virus [2], the “neutralization values (ranking)” value is “Highest neutralization values”. In addition, the “neutralization (comparison among glycopeptides)” value in the assay with HIV IIIB virus [2] was “greater neutralization”. Moreover, the neutralization with HIV IIIB virus [3] is 90%. The “neutralization of the virus” value is reported as “neg (Neg = negative <0.30)” with HIV-1 IIIB (setting [4]); “neg (Neg = negative <0.30)” in the assay with HIV-1 IIIB (setting [5]); “neg (Neg = negative <0.30)” with HIV-1 IIIB (setting [6]); “neg (Neg = negative <0.30)” in the assay with HIV-1 IIIB (setting [7]); 0.39 in the assay with HIV-1 IIIB (setting [8]); 0.49 in the assay with HIV-1 IIIB (setting [9]). Also, the “neutralization of the virus” value with HIV-1 IIIB (setting [10]) was “neg (Neg = negative <0.30)”; in the assay with HIV-1 IIIB (setting [11]) it was 0.32; with HIV-1 IIIB (setting [12]), 0.429; with HIV-1 IIIB (setting [13]) it was “neg (Neg = negative <0.30)”; in the assay with HIV-1 IIIB (setting [14]), “neg (Neg = negative <0.30)”; in the assay on HIV-1 IIIB (setting [15]), “neg (Neg = negative <0.30)”.
